Where a name gives a salt, the structure may show the parent alone.
Columns and labels:
[1] = biological target: T1, dopamine D2 receptor (Homo sapiens, UniProt P14416); assay: inhibition of spiperone[3H] binding in CHO cells, dopamine D2 receptor; conditions: read-out: pKi D2 (converted)
T1 construct: expressed in transfected cells
Experimental: (§1) The activity of derivatives of formula 1 as DRD3 ligands, modulators of the activity of DRD3 according to the invention, was evaluated on cells expressing human recombinant DRD3. […] These same compounds show an apparent affinity for the dopamine D2 receptor that is 100 to 500 times weaker. These same compounds have an affinity for the α1 adrenergic receptor that is 20 to 500 times weaker than that for the D3 receptor. The compounds of formula 1 are either antagonists (intrinsic activity<0.10), partial agonists (0.2<intrinsic activity<0.6) or full agonists (intrinsic activity>0.8). The biological results relative to certain compounds of formula 1 are presented in table 2 at the end of the description.

[2] = biological target: T2, dopamine D3 receptor (Homo sapiens, UniProt P35462); assay: inhibition of spiperone[3H] binding in CHO cells, dopamine D3 receptor; conditions: read-out: pKi D3 (converted)
T2 construct: expressed in transfected cells
T2 sequence (P35462 whole entry): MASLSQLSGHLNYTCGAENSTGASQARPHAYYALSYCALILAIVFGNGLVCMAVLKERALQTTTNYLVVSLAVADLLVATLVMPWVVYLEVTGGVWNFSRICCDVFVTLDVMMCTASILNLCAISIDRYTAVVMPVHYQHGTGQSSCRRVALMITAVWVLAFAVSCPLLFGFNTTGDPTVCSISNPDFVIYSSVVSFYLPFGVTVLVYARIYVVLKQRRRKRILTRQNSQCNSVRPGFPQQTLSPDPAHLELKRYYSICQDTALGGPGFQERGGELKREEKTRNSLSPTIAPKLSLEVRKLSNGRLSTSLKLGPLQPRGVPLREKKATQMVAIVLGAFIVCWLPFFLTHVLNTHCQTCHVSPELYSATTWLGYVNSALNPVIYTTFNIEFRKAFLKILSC
Experimental: as §1

[3] = biological target: α1-adrenergic receptor; assay: inhibition of prazocine[3H] binding in rat brain tissue
Experimental: as §1

[4] = biological target: T3, human recombinant DRD3 (Homo sapiens, UniProt P35462); assay: intrinsic activity on cells expressing human recombinant DRD3; format: cell-based; conditions: antagonists <0.10, partial agonists 0.2-0.6, full agonists >0.8
T3 construct: expressed in transfected cells
T3 sequence (P35462 whole entry): as above
Description: As used above, the term “D3 receptor partial agonist” denotes a compound that forms a complex with DRD3 and that acts as a combined agonist-antagonist, i.e., it induces a physiological response whose intensity is less than that of the natural mediator, dopamine. In vitro, in a cell expressing DRD3, a DRD3 partial agonist produced an active response whose maximum intensity was lower than that produced by dopamine or a by a full agonist, for example quinpirole[(4aR-trans)-4,4a,5,6,7,8,8a,9 octahydro-5-propyl-1H (or 2H)-pyrazolo(3,4-g)quinoline]. A DRD3 partial agonist can also partially prevent the response produced by dopamine or by its full agonists. In vivo, a DRD3 partial agonist produces dopaminergic responses, particularly when dopamine levels are lowered, as is the case with rats with lesions caused by 6-hydroxydopamine or monkeys injected with 1 methyl-4-phenyl-1,2,3,6-tetrahydropyridine (MPTP). Moreover, a DRD3 partial agonist can act as an antagonist in vivo, particularly when DRD3 is subject to sustained dopamine stimulation.
as §1

T1 sequence (P14416 whole entry, species assumed): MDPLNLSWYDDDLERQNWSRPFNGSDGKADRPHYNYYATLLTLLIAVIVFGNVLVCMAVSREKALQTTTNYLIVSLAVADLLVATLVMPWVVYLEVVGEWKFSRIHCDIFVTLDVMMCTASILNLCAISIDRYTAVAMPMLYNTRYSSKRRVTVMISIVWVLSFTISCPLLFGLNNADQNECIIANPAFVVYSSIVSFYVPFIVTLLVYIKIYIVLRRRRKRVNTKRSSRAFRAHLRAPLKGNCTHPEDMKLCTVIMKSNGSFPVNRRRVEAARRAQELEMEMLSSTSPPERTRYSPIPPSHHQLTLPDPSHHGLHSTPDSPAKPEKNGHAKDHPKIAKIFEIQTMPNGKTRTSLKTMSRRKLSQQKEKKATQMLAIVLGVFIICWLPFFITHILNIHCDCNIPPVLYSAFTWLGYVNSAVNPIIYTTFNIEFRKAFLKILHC

melting point [°C]	Ki [1] [nM]	Ki [2] [nM]	pKi α1 [3]	Intrinsic activity [4]	SMILES
229					N#Cc1cccc(N2CCN(CCCCNC(=O)C3=Cc4ccccc4OC3)CC2)c1 (as salt: hydrochloride) [Example 14, 2H-Chromene-3-carboxylic acid {4-[4-(3-cyanophenyl)-piperazin-1-yl]-1-butyl}-amide]
229					CCOC(=O)c1cccc(N2CCN(CCCCNC(=O)C3=Cc4ccccc4OC3)CC2)c1 (as salt: hydrochloride) [Example 21, 3-(4-{4-[(2H-Chromene-3-carbonyl)-amino]-butyl}-piperazin-1-yl)-benzoic acid ethyl ester hydrochloride]
237					CCOC(=O)c1ccc(N2CCN(CCCCNC(=O)C3=Cc4ccccc4OC3)CC2)cc1 (as salt: hydrochloride) [Example 22, 4-(4-{4-[(2H-Chromene-3-carbonyl)-amino]-butyl}-piperazin-1-yl)-benzoic acid ethyl ester hydrochloride]
213					COc1cc(OC)cc(N2CCN(CCCCNC(=O)C3=Cc4ccccc4OC3)CC2)c1 (as salt: hydrochloride) [Example 23, 2H-Chromene 3 carboxylic acid {4-[4-(3,5-dimethoxyphenyl)piperazin-1-yl]-butyl}-amide hydrochloride]
214					O=C(NCCCCN1CCN(c2cccc(Cl)c2Cl)CC1)C1=Cc2cc(Cl)ccc2OC1 (as salt: hydrochloride) [Example 28, 6-Chloro-2H-Chromene-3-carboxylic acid {4-[4-(2,3-dichlorophenyl)-piperazin-1-yl]-butyl}-amide]
157					COc1ccc(Br)c2c1OCC(C(=O)NCCCCN1CCN(c3ccccc3F)CC1)=C2 (as salt: hydrochloride) [Example 49, 5-Bromo-8-methoxy-2H-chromene-3-carboxylic acid {4-[4 (2-fluorophenyl)-piperazin-1-yl]-butyl}-amide hydrochloride]
	123	0.813	7.29		O=C(NCCCCN1CCN(c2cccc(Cl)c2Cl)CC1)C1=Cc2ccccc2OC1 [Example 2, 2H-Chromene-3-carboxylic acid {4-[4-(2,3-dichlorophenyl)-piperazin-1-yl]-butyl}-amide]
	447	2.69	7.55		O=C(NCCCCN1CCN(c2cccc(C(F)(F)F)c2)CC1)C1=Cc2ccccc2OC1 [Example 16, 2H-Chromene-3-carboxylic acid {4-[4-(3-trifluoromethylphenyl)-piperazin-1-yl]-butyl}-amide]
	3160	2.4	7.32	0.18	N#Cc1cccc(N2CCN(CCCCNC(=O)C3=Cc4ccccc4SC3)CC2)c1 [Example 35, 2H-Thiochromene-3-carboxylic acid {4-[4-(3-cyanophenyl)-piperazin-1-yl]-butyl}-amide]
	3800	0.661	7.08	0.64	O=C(NCCCCN1CCN(c2cccc(O)c2)CC1)C1=Cc2ccccc2SC1 [Example 41, 2H-Thiochromene-3-carboxylic acid {4-[4-(3-hydroxyphenyl)-piperazin-1-yl]-butyl}-amide]
	417	0.537	8.05		COc1ccc2c(c1)C=C(C(=O)NCCCCN1CCN(c3ccccc3OC)CC1)CO2 [Example 54, 6-Methoxy-2H-chromene-3-carboxylic acid {4-[4-(2-methoxyphenyl)piperazin-1-yl]-butyl}-amide]
	251	0.794			COc1ccc2c(c1)C=C(C(=O)NCCCCN1CCN(c3cccc(Cl)c3Cl)CC1)CO2 [Example 55, 6-Methoxy-2H-chromene-3-carboxylic acid {4-[4-(2,3-dichlorophenyl)-piperazin-1-yl]-butyl}-amide]
	34.7	0.219	6.78	0	CS(=O)(=O)Nc1cccc(N2CCN(CCCCNC(=O)C3=Cc4cc(Cl)ccc4OC3)CC2)c1 [Example 89, 6-chloro-2H-chromene-3-carboxylic acid {4-[4-(3-mesylamino-phenyl}-piperazin-1-yl]-butyl}-amide]
	93.3	0.219	8.05	0.59	O=C(NCCCCN1CCN(c2cccc3[nH]ccc23)CC1)C1=Cc2ccccc2OC1 [Example 102, 2H-chromene-3-carboxylic acid {4-[4-(1H-indol-4-yl)-piperazin-1-yl]-butyl}-amide]
	132	0.603	7.81		O=C(NCCCCN1CCN(c2cccc3c2OCCO3)CC1)C1=Cc2ccccc2OC1 [Example 105, 2H-chromene-3-carboxylic acid {4-[4-(2,3-dihydro-benzo[1,4]dioxin-5-yl)-piperazin-1-yl]-butyl}-amide]
	7.59	0.0676	8.44	0.81	O=C(NCCCCN1CCN(c2cccc3[nH]c(=O)oc23)CC1)C1=Cc2ccccc2OC1 [Example 110, 2H-chromene-3-carboxylic acid {4-[4-(2-oxo-2,3-dihydro-benzoxazol-7-yl)-piperazin-1-yl]-butyl}-amide]
	141	0.676	7.84	0.26	O=C(NCCCCN1CCN(c2cccc3c2OCC3)CC1)C1=Cc2ccccc2OC1 [Example 111, 2H-chromene-3-carboxylic acid {4-[4-(2,3-dihydro-benzofuran-7-yl)-piperazin-1-yl]-butyl} amide]
